The values that follow come from patent US9023987B2, “Cell-permeable peptide” (Seoul National University R&DB Foundation, priority 2010, dated 2015).

Series [1] deals with human mesenchymal stem cells (hMSC). Briefly: Cell permeability by flow cytometry. Format: cell-based. On the set-up: dose or concentration left out as unconfirmed. The following applies: FITC-labeled, relative to bone differentiation inducing sequence, FIG. 3B. As to the method: The domains synthesized in Example 1 and Comparative Examples 1 and 2 were labeled with a fluorescent material in order to measure cell permeability. 10 equivalents of fluorescein isothiocyanate (FITC) was bound to N-terminals of the synthesized domains by using triethylamine (1 ml per 1 g of resin). The synthesis of the peptide was confirmed by measuring the molecular weight thereof through MALDI-TOF.
In order to quantitatively confirm the cell permeability and cell permeation degree of fluorescence labeled magnetic nanoparticle conjugates, after 1×10^5 human mesenchymal stem cells (hMSC) were plated in each well of 6-well plate, the cells were cultured in a general medium for 20 hours (overnight incubation). […] fluorescence labeled cell permeable peptide-bone differentiation inducing sequence conjugate and […] fluorescence labeled bone differentiation inducing sequence that were obtained by binding FITC (SIGMA, USA) N-terminals of the cell permeable peptide-bone differentiation inducing sequence conjugate synthesized by the method in Example 1 and the domain in Comparative Example 2 to synthesize the fluorescence label conjugate and fluorescence label domain, followed by isolation and purification, were injected into each well and washed with the phosphate buffer solution (PBS) two times after 20, 40, 60, and 80 minutes of injection. […]
A general note: A flow cytometer gives signals particle by particle.

A further series has as its system ALP, OCN, and RUNX2. Briefly: Bone differentiation marker genes by quantitative real-time PCR and electrophoresis. It is filed as cell-based, human. The settings on record: EtBr agarose gel, compared with PBS; FIG. 4C. As to the method: In order to confirm cell differentiation ability of the cell permeable peptide-bone differentiation inducing sequence conjugate through bone tissue differentiation marker genes, human mesenchymal stem cells (hMSC) were seeded in each well of a 6 cm-dish at 1×10^5/well, and then incubated in a general medium for 20 hours (overnight) for cell stabilization. After 20 hours of incubation, the cells were treated with the cell permeable peptide-bone differentiation inducing sequence conjugate and 10 μm of the bone differentiation inducing sequence of Comparative Example 2 for 72 hours.
After that, the entire RNA was separated from the treated cells, using a Trizol® reagent (reagent for isolating RNA from cell and tissue samples) (Invitrogen Life Technologies, USA), according to the manufacturer's instructions, and the amount and purity of the entire RNA were measured by the spectrophotometer. […]
In order to carry out the quantitative real-time PCR, cDNA to be used as a template and primers were mixed, like in RT-PCR, and then 10 μl of SYBR® Green Premix Ex Taq (TaKaRa, JAPAN) was mixed therewith to prepare a reaction material. […] The CT value of each gene was […] the CT value for housekeeping GAPDH gene and the value calculated based on the negative control was taken, so that comparison in the degree of mRNA expression was conducted (Shin et al., (2007) Plant J. 49, 981-994).
(In general: In qPCR the cycle at which signal appears reflects the starting amount.)

Series [2] relates to human mesenchymal stem cells (hMSC). Description: Cytotoxicity by MTT assay. The following applies: 24, 48, and 72 hours, FIG. 5. It is filed as cell-based. Details: dose or concentration left out as unconfirmed. As to the method: In order to confirm whether or not cell proliferation is affected by potential toxicity when the cell permeable peptide-bone differentiation inducing sequence conjugate and control domains are cultured with hMSC, a 3-[4,5-dimethylthiazo-2-yl]-2,5-diphenyl tetrazolium bromide thiazolyl blue (MTT) assay method was used.
The MTT assay method is a method for measuring cytotoxicity by measuring absorbance of formazan produced as mitochondrial dehydrogenases in alive and metabolically active cells reduces MTT to indicate the absorbance as a percentage based on the control group. In this case, the measured absorbance reflects a concentration of the alive and metabolically active cells. 2,3,5-triphenyl tetrazolium chloride (TTC) is reduced to formazan in live cells. The formazan is insoluble purple color, and a respiration rate may be measured by a degree of color. The absorbance of formazan is maximal at 540 nm, and the absorbance measured at this wavelength reflects the concentration of the alive and metabolically active cells. Since a linear relationship between the absorbance and the concentration of the cells is not established when a concentration of cells in well to be measured is excessively high or low, a process of determining an optimal concentration of the cells was performed. […]
(In general: Tetrazolium dyes change colour on reduction, which living cells bring about.)

Consider “NH2-GAPPPADSAP-SSRKKNPNCRRH-C-COONH2 (H-GAPPPADSAPSSRKKNPNCRRHC-NH2; cysteine pairing not given here) [Example 1]”, for which, in series [1], the “relative increase of fluorescence intensity (flow cytometry)” value is reported as at least 10 times. The “bands of ALP, OCN, and RUNX2 PCR products (electrophoresis)” value in the series with ALP, OCN, and RUNX2 is listed as “noticeably increased bands”. Further, in series [2], the “cytotoxicity (MTT, cell proliferation ability compared with PBS)” value was “did not exhibit cytotoxicity”.
